From patent publication US11484258B2, “Free radical consumption speed information acquisition method and NASH determination method” (KYUSHU UNIVERSITY, NATIONAL UNIVERSITY CORPORATION, priority 2016, dated 2022)
Like-named read-outs stand apart in the source and are kept apart here.

Legend:
[1] = test system: homogenate solution of the liver; experiment: redox metabolism of CmP by liver homogenate solution, cytoplasmic and blood components (FIG. 7); conditions: KCN (mitochondrial electron transport chain inhibitor) added
liver = experiment: in vivo DNP-MRI of the liver after intravenous CmP: redox metabolic rate (free radical consumption speed); design: species or system mouse
Source text: C57BL6 mice (female, 5 weeks old) were purchased from Charles River Laboratories Japan, Inc. (Yokohama, Japan), and were acclimated for 1 week before starting the experiment. Five mice were housed per cage and were fed with a methionine-choline deficient diet or a normal diet in a room where the temperature and the circadian rhythm were controlled. Each of a methionine-choline deficient diet group (NASH model mouse group) and a normal diet group (normal mouse group) was divided into 5 groups to be subjected to DNP-MRI measurement at 1, 2, 4, 6 and 8 weeks, and blood collection, autopsy and liver tissue collection were performed to evaluate the pathological conditions.
A mouse (NASH model mouse) was anesthetized with isoflurane (4% for introduction, 2% for maintenance) and was fixed, with a pressure-sensitive tape for skin, on a local detector for liver measurement (a surface coil) and a holder with the stomach side faced downward. The body temperature of the mouse was 37±1° C. during the experiment. The mouse was transferred to a DNP-MRI resonance apparatus and the apparatus was set such that the whole liver was a measurement target, and then, CmP (Carbamoyl-PROXYL, redox contrast agent) was intravenously injected into the NASH mode mouse, and the DRI-MRI measurement was started.
TR: 1200 ms; TE: 25 ms; TEPR: 600 ms; number of phase-encoding gradient steps: 64; […]; FOV: 48 mm×48 mm; matrix size: 64×64 (in-plane resolution: 0.75 mm); slice thickness: 30 mm; number of average: 1; and scanning time: 79 s. OMRI data was analyzed by using Image J Software Package (http://rsb.info.nih.gov/ij/).
Besides, the mouse group fed with the normal diet (the normal mouse group) was similarly subjected as a control to the DRI-MRI evaluation.
With respect to the NASH model mouse group, the DNP-MRI measurement was performed 1 week (MCD1), 2 weeks (MCD2), 4 weeks (MCD4), 6 weeks (MCD6) and 8 weeks (MCD8) after feeding the methionine-choline deficient diet (MCD) was started, and the redox metabolic rate of the CmP radical in the liver was calculated.
Also with respect to the normal mouse group, the DNP-MRI measurement was similarly performed 1 week (ND1), 2 weeks (ND2), 4 weeks (ND4), 6 weeks (ND6) and 8 weeks (ND8) after feeding the normal diet was started, and the redox metabolic rate of the CmP radical in the liver was calculated.

[2] = test system: homogenate solution of the liver

CC1(C)CC(C(N)=O)C(C)(C)N1[O] (stereo not shown) [CmP, Carbamoyl-PROXYL]
redox metabolism by a homogenate solution of the liver [1]: metabolism is stopped
disappearance of the CmP (image intensity in region of interest) (liver; NASH model mouse compared with normal mouse): significantly slower
redox metabolic rate (disappearing rate) in the liver (liver; NASH model mouse group (methionine-choline deficient diet), from 1 week (MCD1), versus normal mouse): significant decrease
time after administration at which the CmP radical still remained (liver; NASH model mouse, epigastrium DNP-MRI images, FIG. 3): 13 min
time after administration at which the CmP radical had mostly disappeared (liver; normal mice (control), epigastrium DNP-MRI images, FIG. 3): 5.5 min
reaction with a cytoplasmic component or a blood component [2]: minimally reacts
redox metabolism by a homogenate solution of the liver [2]: redox metabolized
